This is an account of results in paper PMC6522510 (Nature Communications, 2019).

Among the test systems are CHRF288-11; CMK; CMS; M07e; ML-2; MOLM-13; MV4-11; U937.
Set-up in all cases: species or system AML cell lines (8); Primary HTS, single concentration about 10 uM, Cell Titer Glo viability; log10 luminescence, per cent inhibition relative to cycloheximide control
Holding throughout (conditions): 72 h, relative to cycloheximide control, log10 luminescence; inhibitor

Where a name gives a salt, the structure may show the parent alone.

In the case of `CCNC(=O)O[C@H]1CN[C@H](C#Cc2cc3ncnc(Nc4ccc(OCc5cccc(F)c5)c(Cl)c4)c3s2)C1` [SJ000573214-1, U20348/125/4], the CHRF288-11 %inh in the assay with CHRF288-11 is recorded as 5.639%. In the assay on CMK, the CMK %inh is listed as -1.307%. Further, the CMS %inh in the assay with CMS came to 3.079%. Besides, the M07e %inh in the assay with M07e is recorded as 3.561%. Also, in the assay on ML-2, the ML-2 %inh turned out to be 3.073%. In the assay on MOLM-13, the MOLM-13 %inh is given as 0.5641%. Besides, the MV4-11 %inh in the assay with MV4-11 is listed as 0.06144%. The U937 %inh in the assay with U937 is -0.8245%.

Consider `Cc1ccc(Nc2ccnc(Nc3cccc(C(N)=O)c3)n2)cc1O` [SJ000573134-1, R4218/174/1], for which the CHRF288-11 %inh in the assay with CHRF288-11 is listed as 5.659%. In addition, the CMK %inh in the assay on CMK was 14.84%. The CMS %inh in the assay with CMS is -1.873%. Also, the M07e %inh in the assay on M07e came out at 3.53%. Also, in the assay with ML-2, the ML-2 %inh is listed as 3.588%. The same molecule came in with an MOLM-13 %inh in the assay with MOLM-13 of 95.23%. For the same molecule, in the assay on MV4-11, the MV4-11 %inh was 65.12%. Moreover, the U937 %inh in the assay with U937 is on record as -1.642%.

`CCOC(=O)OC(C)OC(=O)[C@@H]1N2C(=O)[C@@H](NC(=O)[C@H](N)c3ccccc3)[C@H]2SC1(C)C` (stereo partly shown) [SJ000285946-4, BACAMPICILLIN HYDROCHLORIDE]: the CHRF288-11 %inh with CHRF288-11 was -3.08%. For the same molecule, the CMK %inh with CMK is -5.01%. In addition, the CMS %inh with CMS is recorded as -1.038%. Moreover, in the assay on M07e, the M07e %inh was -1.353%. Moreover, the ML-2 %inh in the assay with ML-2 was -0.2443%. For the same molecule, in the assay on MOLM-13, the MOLM-13 %inh was 6.375%. The MV4-11 %inh with MV4-11 is given as -1.634%. For the same molecule, the U937 %inh in the assay on U937 is reported as -1.553%.

Take `Nc1c(C(=O)c2ccccc2)cnn1-c1ccc(F)cc1` [SJ000581122-1]: the CHRF288-11 %inh with CHRF288-11 is given as -5.198%. For the same molecule, the CMK %inh in the assay on CMK is on record as 1.79%. Besides, in the assay on CMS, the CMS %inh was -0.3703%. For the same molecule, the M07e %inh in the assay on M07e turned out to be 10.33%. Further, in the assay with ML-2, the ML-2 %inh is on record as 1.652%. The molecule also yielded an MOLM-13 %inh with MOLM-13 of 2.618%. The MV4-11 %inh in the assay on MV4-11 was -1.368%. Also, the U937 %inh in the assay on U937 was -0.682%.

Take `COC(=O)Nc1nc2ccc(Sc3ccc(NC(=O)Nc4cc(C(F)(F)F)ccc4F)cc3)cc2[nH]1` [SJ000573029-1, T229/195/1]: the CHRF288-11 %inh in the assay on CHRF288-11 was 10.2%. Further, the CMK %inh with CMK is on record as 38.89%. Also, the CMS %inh in the assay with CMS is listed as -0.01293%. The M07e %inh in the assay with M07e stood at 3.372%. For the same molecule, the ML-2 %inh with ML-2 was found to be 2.621%. In the assay on MOLM-13, this molecule gave an MOLM-13 %inh of 17.62%. Moreover, the MV4-11 %inh in the assay with MV4-11 is on record as 2.362%. The U937 %inh in the assay on U937 is on record as 5.795%.

`O=C1NC(=NCc2ccccc2Cl)S/C1=C\c1ccc2ncccc2c1` [SJ000581134-1]: the CHRF288-11 %inh with CHRF288-11 is recorded as -1.242%. In the assay with CMK, the CMK %inh is reported as -0.8248%. For the same molecule, the CMS %inh with CMS amounted to 2.499%. Also, the M07e %inh in the assay on M07e came out at 4.671%. In addition, in the assay on ML-2, the ML-2 %inh is recorded as 1.267%. In addition, the MOLM-13 %inh in the assay on MOLM-13 amounted to 0.6384%. Moreover, the MV4-11 %inh with MV4-11 was found to be 3.2%. Also, the U937 %inh with U937 came out at 2.507%.

Regarding `Cn1cc(C2=C(c3cn(CCCCCO)c4ccccc34)C(=O)NC2=O)c2ccccc21` [SJ000581010-1], the CHRF288-11 %inh in the assay on CHRF288-11 is recorded as 17.96%. In the assay on CMK, the CMK %inh turned out to be 27.55%. Further, the CMS %inh with CMS was 1.022%. In the assay on M07e, the M07e %inh came out at 1.341%. The ML-2 %inh in the assay with ML-2 was -1.548%. The MOLM-13 %inh with MOLM-13 was 6.709%. In addition, the MV4-11 %inh in the assay on MV4-11 is -1.111%. Further, the U937 %inh in the assay with U937 is -0.3264%.

Regarding `CCCCCC(=O)O[C@]1(C(C)=O)CC[C@H]2[C@@H]3CCC4=CC(=O)CC[C@]4(C)[C@H]3CC[C@@]21C` [SJ000285789-3, HYDROXYPROGESTERONE CAPROATE], the CHRF288-11 %inh in the assay on CHRF288-11 is -3.09%. Further, in the assay with CMK, the CMK %inh came out at 2.985%. In addition, the CMS %inh in the assay on CMS is reported as -0.655%. Further, the M07e %inh in the assay with M07e is 0.1043%. Also, the ML-2 %inh in the assay with ML-2 is -1.962%. For the same molecule, the MOLM-13 %inh with MOLM-13 came out at 1.659%. Besides, the MV4-11 %inh in the assay on MV4-11 is recorded as -1.131%. For the same molecule, the U937 %inh in the assay on U937 stood at 3.003%.
